{"source": "patent US10724949B2", "about": "“Cuvette for detecting bacteria and determining their susceptibility to antibiotics” (BacterioScan LTD., priority 2005, dated 2020)", "tested_on": "E. coli", "test": "Light scattering (speckles image difference plots) test of bacterial susceptibility to an antibiotic agent in a filtered urine sample", "assay_type": "cell-based", "settings": "gentamicin 1% in test cuvette", "source_text": "Background signal originated by particles suspended in the sample of fluid that are larger than the bacteria are excluded by mechanically filtering according to the method of the present invention. However there are sources and light scatterers other than the bacteria that can contribute a stationary background signal. Such signals are typically originated by stationary particles present within the illuminated space, impurity of the light source, defects in, and or particles contaminating, the optical components. Therefore a difference plot is computed for excluding stationary background according to a preferred embodiment of the present invention. The intensity measured in every pixel of a speckles image is subtracted from the intensity measured in the same pixel of a preceding speckles image to form a difference plot. […]\nFor determining the susceptibility of bacteria to an antibiotic agent, an average value of at least two averaged derivatives computed first for a test cuvette, immediately following the introduction of an antibiotic agent, are compared to an average of the same number of averaged derivatives computed for speckles images received a few minutes later, preferably after more than 5 minutes. The antibiotic agent for which the difference between these averaged derivatives is the larger is determined. […]"}
{"substance": "gentamicin", "values": [{"measurement": "concentration of non-stationary scatterers (difference plots of speckles images)", "setting": "urine containing E. coli 10^5 CFU/ml, difference plot 30 minutes later vs immediately following introduction (FIG. 9B, 9C)", "value": "significant reduction"}, {"measurement": "values of the averaged derivative of the concentration of scatterers in time (normalised by their maximal value)", "setting": "urine containing E. coli, a few minutes after the introduction of the antibiotics (FIG. 9D)", "value": "significant reduction (of a few tens of percents)"}]}
